# Experimental data published in patent publication US20070010565A1, “New thiazolidinones without basic nitrogen, their production and use as pharmaceutical agents” (priority 2005, published 2007).
# Key:
# [1] = target: T1, Recombinant human Plk-1 (6×His) (Homo sapiens, UniProt P53350); experiment: PLK enzyme assay; format: biochemical; conditions: biotinylated casein and 33P-γ-ATP substrate, 90 minutes at room temperature, SPA beads; read-out: PLK-1 IC50 [nM] Inhibition
# T1 construct: 6xHis; made in house; host or cells: baculovirus-infected insect cells (Hi5)
# T1 sequence (P53350 whole entry): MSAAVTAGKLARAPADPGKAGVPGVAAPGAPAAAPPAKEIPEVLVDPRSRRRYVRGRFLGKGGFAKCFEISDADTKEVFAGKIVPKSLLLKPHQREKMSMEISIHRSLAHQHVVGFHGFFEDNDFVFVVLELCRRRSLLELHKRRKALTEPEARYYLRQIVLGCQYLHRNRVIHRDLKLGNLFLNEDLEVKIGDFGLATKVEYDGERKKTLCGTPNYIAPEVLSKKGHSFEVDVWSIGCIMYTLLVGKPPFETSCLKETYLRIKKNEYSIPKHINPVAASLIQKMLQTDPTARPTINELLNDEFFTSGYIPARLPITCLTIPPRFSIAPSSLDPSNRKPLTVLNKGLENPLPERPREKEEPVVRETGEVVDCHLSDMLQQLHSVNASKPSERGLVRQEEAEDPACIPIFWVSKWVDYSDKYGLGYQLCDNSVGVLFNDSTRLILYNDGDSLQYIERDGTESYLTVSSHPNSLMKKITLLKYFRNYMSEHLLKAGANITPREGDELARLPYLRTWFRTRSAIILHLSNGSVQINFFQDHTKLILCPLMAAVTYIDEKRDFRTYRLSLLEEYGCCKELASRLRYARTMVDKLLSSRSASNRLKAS
# Experimental: Recombinant human Plk-1 (6×His) was purified from baculovirus-infected insect cells (Hi5).
# 10 ng of (produced in a recombinant manner and purified) PLK enzyme is incubated for 90 minutes at room temperature with biotinylated casein and 33P-γ-ATP as a substrate in a volume of 15 μl in 384-well Greiner small-volume microtiter plates (final concentrations in the buffer: 660 ng/ml of PLK; 0.7 μmol of casein, 0.5 μmol of ATP incl. 400 nCi/ml of 33P-γ-ATP; 10 mmol of MgCl2, 1 mmol of MnCI2; 0.01% NP40; 1 mmol of DTT, protease inhibitors; 0.1 mmol of Na2VO3 in 50 mmol of HEPES, pH 7.5). To complete the reaction, 5 μl of stop solution (500 μmol of ATP; 500 mmol of EDTA; 1% Triton X100; 100 mg/ml of streptavidin-coated SPA beads in PBS) is added. After the microtiter plate is sealed by film, the beads are sedimented by centrifuging (10 minutes, 1500 rpm). The incorporation of 33P-γ-ATP in casein is intended as a measurement of enzyme activity by β-counting.
# Test substances are used in various concentrations (0 μmol, as well as in the range of 0.01-30 μmol). The final concentration of the solvent dimethyl sulfoxide is 1.5% in all batches.
# [2] = test system: human MaTu breast tumour cells; experiment: Proliferation assay (crystal violet); format: cell-based; conditions: 96 h, 4 days incubation, read-out: Inhibition of the Tumour Cell Proliferation (MaTu) IC50
# Experimental: Cultivated human MaTu breast tumour cells were flattened out at a density of 5000 cells/measuring point in a 96-well multititer plate in 200 μl of the corresponding growth medium. After 24 hours, the cells of one plate (zero-point plate) were colored with crystal violet (see below), while the medium of the other plates was replaced by fresh culture medium (200 μl), to which the test substances were added at various concentrations (0 μm, as well as in the range of 0.01-30 μm; the final concentration of the solvent dimethyl sulfoxide was 0.5%). The cells were incubated for 4 days in the presence of test substances. The cell proliferation was determined by coloring the cells with crystal violet: the cells were fixed by adding 20 μl/measuring point of an 11% glutaric aldehyde solution for 15 minutes at room temperature. After three washing cycles of the fixed cells with water, the plates were dried at room temperature. The cells were colored by adding 100 μl/measuring point of a 0.1% crystal violet solution (pH was set at 3 by adding acetic acid). […] The extinction was determined by photometry at a wavelength of 595 nm. The change of cell growth, in percent, was calculated by standardization of the measured values to the extinction values of the zero-point plate (=0%) and the extinction of the untreated (0 μm) cells (=100%).
Structure (SMILES),IC50 [1] [nM],IC50 [2] [nM]
C#CCNC(=O)/C(C#N)=c1\sc(=Cc2ccc(N3CCCC3)cc2)c(=O)n1CC [Example 10],23,
CCNC(=O)/C(C#N)=c1\sc(=Cc2ccc(O)cc2)c(=O)n1CC [Example 3],230,
C#CCNC(=O)/C(C#N)=c1\sc(=Cc2ccc(O)cc2)c(=O)n1CC [Example 8],39,3200
